The values that follow come from patent publication US8017606B2, “Quinoline derivatives as antibacterial agents” (Janssen Pharmaceutica NV, priority 2005, dated 2011).

Molecules are shown by their SMILES. Converted amounts (≈) assume the structure as drawn.

Data set [1] deals with Streptococcus mutans (ATCC33402). The data set can be described thus: Microtitre plate assay, IC90 determination. The class given is cell-based. Conditions: 90% inhibitory concentration for bacterial growth, 37° C., resazurin fluorescence, read-out: IC90 (μg/ml) SMU 33402. The protocol:
(§1) The bacteria used in this study were grown overnight in flasks containing 100 ml Mueller-Hinton Broth (Becton Dickinson—cat. no. 275730) in sterile de-ionized water, with shaking, at 37° C. Stocks (0.5 ml/tube) were stored at −70° C. until use. Bacteria titrations were performed in microtiter plates and colony forming units (CFUs) were determined. In general, an inoculum level of approximately 100 CFUs was used for susceptibility testing.
(§2) Anti Bacterial Susceptibility Testing: IC90 Determination
(§3) Flat-bottom, sterile 96-well plastic microtiter plates were filled with 180 μl of sterile deionized water, supplemented with 0.25% BSA. Subsequently, stock solutions (7.8×final test concentration) of compounds were added in 45 μl volumes in column 2 Serial five-fold dilutions (45 μl in 180 μl) were made directly in the microtiter plates from column 2 to reach column 11. Untreated control samples with (column 1) and without (column 12) inoculum were included in each microtiter plate. Depending on the bacteria type, approximately 10 to 60 CFU per well of bacteria inoculum (100 TCID50), in a volume of 100 μl in 2.8× Mueller-Hinton broth medium, was added to the rows A to H, except column 12. The same volume of broth medium without inoculum was added to column 12 in row A to H. The cultures were incubated at 37° C. for 24 hours under a normal atmosphere (incubator with open air valve and continuous ventilation). At the end of incubation, one day after inoculation, the bacterial growth was quantitated fluorometrically. Therefore resazurin (0.6 mg/ml) was added in a volume of 20 μl to all wells […], and the plates were re-incubated overnight. A change in colour from blue to pink indicated the growth of bacteria.
(§4) The fluorescence was read in a computer-controlled fluorometer (Cytofluor Biosearch) at an excitation wavelength of 530 nm and an emission wavelength of 590 nm. The % growth inhibition achieved by the compounds was calculated according to standard methods. The IC90 (expressed in μg/ml) was defined as the 90% inhibitory concentration for bacterial growth.
In general terms: The colour change of resazurin is a common sign of viable cells or microbes.

The subject of data set [2] is Enterococcus faecalis (ATCC14506). The data set can be described thus: Microtitre plate assay, IC90 determination. The class given is cell-based. Conditions: 90% inhibitory concentration for bacterial growth, 37° C., resazurin fluorescence, read-out: IC90 (μg/ml) EFA 14506. The procedure: as §1, §2, §3, §4
The test system of data set [3] is Staphylococcus aureus (ATCC29213). The data set can be described thus: Microtitre plate assay, IC90 determination. The class given is cell-based. Conditions: 90% inhibitory concentration for bacterial growth, 37° C., resazurin fluorescence, read-out: IC90 (μg/ml) STA 29213. The protocol: as §1, §2, §3, §4
The test system of data set [4] is Staphylococcus aureus (ATCC25923). The data set can be described thus: Microtitre plate assay, IC90 determination. The class given is cell-based. The note with it: 90% inhibitory concentration for bacterial growth, 37° C., resazurin fluorescence, read-out: IC90 (μg/ml) STA 25923. The procedure: as §1, §2, §3, §4
Data set [5] relates to Streptococcus pyogens (ATCC8668). The data set can be described thus: Microtitre plate assay, IC90 determination. The note with it: 90% inhibitory concentration for bacterial growth, 37° C., resazurin fluorescence, read-out: IC90 (μg/ml) SPY 8668. The class given is cell-based. The protocol:
as §1, §2, §3, §4

In data set [6] the test system is Listeria monocytogenes (ATCC49594). The data set can be described thus: Microtitre plate assay, IC90 determination. The class given is cell-based. Conditions: 90% inhibitory concentration for bacterial growth, 37° C., resazurin fluorescence, read-out: IC90 (μg/ml) LMO 49594. The procedure:
as §1, §2, §3, §4

The subject of data set [7] is Streptococcus pneumoniae (ATCC6305). The data set can be described thus: Microtitre plate assay, IC90 determination. The note with it: 90% inhibitory concentration for bacterial growth, 37° C., resazurin fluorescence, read-out: IC90 (μg/ml) SPN 6305. The class given is cell-based. The procedure:
as §1, §2, §3, §4

Data set [8] concerns Staphylococcus aureus (ATCC43300). The data set can be described thus: Microtitre plate assay, IC90 determination. The class given is cell-based. The note with it: 90% inhibitory concentration for bacterial growth, 37° C., resazurin fluorescence, read-out: IC90 (μg/ml) STA 43300. The procedure:
as §1, §2, §3, §4

The test system of data set [9] is methicilline resistant Staphylococcus aureus (MRSA) (a clinical isolate from the University of Antwerp). The data set can be described thus: Microtitre plate assay, IC90 determination. The class given is cell-based. The note with it: 90% inhibitory concentration for bacterial growth, 37° C., resazurin fluorescence, read-out: IC90 (μg/ml) STA RMETHIC. The protocol: as §1, §2, §3, §4

The test system of data set [10] is Enterococcus faecalis (ATCC29212). The data set can be described thus: Microtitre plate assay, IC90 determination. The class given is cell-based. Conditions: 90% inhibitory concentration for bacterial growth, 37° C., resazurin fluorescence, read-out: IC90 (μg/ml) EFA 29212. The procedure: as §1, §2, §3, §4
The subject of data set [11] is Bacillus subtilis (ATCC43639). The data set can be described thus: Microtitre plate assay, IC90 determination. Conditions: 90% inhibitory concentration for bacterial growth, 37° C., resazurin fluorescence, read-out: IC90 (μg/ml) BSU 43639. The class given is cell-based. The protocol: as §1, §2, §3, §4
Data set [12] relates to Pseudomonas aeruginosa (ATCC27853). The data set can be described thus: Microtitre plate assay, IC90 determination. The class given is cell-based. Conditions: 90% inhibitory concentration for bacterial growth, 37° C., resazurin fluorescence, read-out: IC90 (μg/ml) PAE 27853. The protocol: as §1, §2, §3, §4

In the case of `COc1nc2cccc(C(O)(CCN(C)C)c3cccc4ccccc34)c2cc1-c1ccccc1` (stereo not drawn) [Compound 2], the IC90 in [1] was found to be 9.2 µg/mL (≈ 19.9 µM); in [2] it was 8.2 µg/mL (≈ 17.7 µM); in data set [3], 9.2 µg/mL (≈ 19.9 µM); in data set [4], 11.6 µg/mL (≈ 25.1 µM); in data set [5], 9.2 µg/mL (≈ 19.9 µM); in data set [6], 11.6 µg/mL (≈ 25.1 µM). Moreover, the IC90 in data set [7] turned out to be 11.6 µg/mL (≈ 25.1 µM); in [8], 9.2 µg/mL (≈ 19.9 µM); in data set [9] it was 11.6 µg/mL (≈ 25.1 µM); in data set [10], 11.6 µg/mL (≈ 25.1 µM); in [11] it was 9.2 µg/mL (≈ 19.9 µM); in data set [12] it was 9.2 µg/mL (≈ 19.9 µM).
Regarding `COc1nc2cccc(C(O)(CCN(C)C)c3ccc4ccccc4c3)c2cc1-c1ccccc1` (stereo not drawn) [Compound 3], the IC90 in data set [1] turned out to be 9.2 µg/mL (≈ 19.9 µM); in data set [3], 11.6 µg/mL (≈ 25.1 µM); in data set [4] it was 11.6 µg/mL (≈ 25.1 µM); in data set [5] it was 9.2 µg/mL (≈ 19.9 µM); in [6] it was 11.6 µg/mL (≈ 25.1 µM); in data set [7], 5.2 µg/mL (≈ 11.2 µM). The IC90 in data set [8] is 9.2 µg/mL (≈ 19.9 µM); in data set [9] it was 11.6 µg/mL (≈ 25.1 µM); in data set [10], 11.6 µg/mL (≈ 25.1 µM); in data set [11], 11.6 µg/mL (≈ 25.1 µM); in data set [12], 9.2 µg/mL (≈ 19.9 µM).
As for `COc1nc2cccc(C(O)(CCN(C)C)c3cc4ccccc4o3)c2cc1-c1ccccc1` (stereo not drawn) [Compound 6], the IC90 stood at 9 µg/mL (≈ 19.9 µM) in [1]; 9 µg/mL (≈ 19.9 µM) in data set [3]; 11.4 µg/mL (≈ 25.2 µM) in data set [4]; 9 µg/mL (≈ 19.9 µM) in data set [5]; 11.4 µg/mL (≈ 25.2 µM) in [6]; 11.4 µg/mL (≈ 25.2 µM) in data set [7]. Further, the IC90 in data set [8] came to 9 µg/mL (≈ 19.9 µM); in data set [9] it was 10.1 µg/mL (≈ 22.3 µM); in data set [10] it was 11.4 µg/mL (≈ 25.2 µM); in data set [11], 11.4 µg/mL (≈ 25.2 µM); in [12], 9 µg/mL (≈ 19.9 µM).
What is called melting point is the temperature, or range, at which the solid turns liquid. `COc1nc2c(C(O)(CCN(C)C)c3ccccc3)cc(Br)cc2cc1Cc1ccccc1` (stereo not drawn) [Compound 8] displayed a melting point of 66 °C. For the same compound, the IC90 in [1] amounted to 10.1 µg/mL (≈ 20 µM). In addition, the IC90 in [2] stood at 11.3 µg/mL (≈ 22.4 µM). In addition, the IC90 in [3] is 10.1 µg/mL (≈ 20 µM). In data set [4], the IC90 amounted to 11.3 µg/mL (≈ 22.4 µM). Moreover, the IC90 in data set [5] turned out to be 10.1 µg/mL (≈ 20 µM). For the same compound, the IC90 in data set [6] was found to be 40.2 µg/mL (≈ 79.5 µM). In addition, the IC90 in data set [7] came out at 11.3 µg/mL (≈ 22.4 µM). The IC90 in [9] stood at 11.3 µg/mL (≈ 22.4 µM). The IC90 in data set [11] was found to be 12.7 µg/mL (≈ 25.1 µM). Moreover, in [12], the IC90 turned out to be 12.7 µg/mL (≈ 25.1 µM).
Regarding `COc1nc2c(C(O)(CCN(C)C)c3cc(F)cc(F)c3)cc(Br)cc2cc1-c1ccccc1` (stereo not drawn) [Compound 9], the IC90 was found to be 10.5 µg/mL (≈ 19.9 µM) in [1]; 11.8 µg/mL (≈ 22.4 µM) in data set [2]; 10.5 µg/mL (≈ 19.9 µM) in data set [3]; 11.8 µg/mL (≈ 22.4 µM) in [4]; 10.5 µg/mL (≈ 19.9 µM) in data set [5]; 10.5 µg/mL (≈ 19.9 µM) in data set [6]. Besides, the IC90 was determined as 13.3 µg/mL (≈ 25.2 µM) in data set [7]; 13.3 µg/mL (≈ 25.2 µM) in data set [8]; 11.8 µg/mL (≈ 22.4 µM) in data set [9]; 10.5 µg/mL (≈ 19.9 µM) in [10]; 10.5 µg/mL (≈ 19.9 µM) in data set [12].
Consider `COc1nc2c(C(O)(CCN(C)C)c3cccs3)cc(Br)cc2cc1Cc1ccccc1` (stereo not drawn) [Compound 10], for which the IC90 was 10.2 µg/mL (≈ 19.9 µM) in [1]; 12.9 µg/mL (≈ 25.2 µM) in data set [3]; 11.5 µg/mL (≈ 22.5 µM) in data set [4]; 10.2 µg/mL (≈ 19.9 µM) in [5]; 10.2 µg/mL (≈ 19.9 µM) in [6]; 11.5 µg/mL (≈ 22.5 µM) in data set [7]. The IC90 in [8] was determined as 12.9 µg/mL (≈ 25.2 µM); in [9], 10.2 µg/mL (≈ 19.9 µM); in data set [10], 10.2 µg/mL (≈ 19.9 µM); in [12], 12.9 µg/mL (≈ 25.2 µM).
